Data from patent US20220054465A1, “(PYRIDIN-2-YL)AMINE DERIVATIVES AS TGF-BETA R1 (ALK5) INHIBITORS FOR THE TREATMENT OF CANCER” (Nexys Therapeutics, Inc., priority 2018, published 2022).
pIC50: −log10 of the molar value.

tested on: HEK-Blue TGFβ cell; assay: HEK-Blue TGFβ cellular reporter gene assay (SEAP readout); type: cell-based; settings: HEK-Blue TGFβ cells stimulated with TGF-β, 22-23 h incubation, SEAP read at 630 nm
Description: HEK-Blue TGFβ Cellular Reporter Gene Assay:
HEK-Blue TGFβ cell was purchased from Invivogen. Cell suspension of 2.5×10^5 cells/ml was prepared using Test Medium (DMEM containing 0.5% v/v heat-inactivated FBS). TGF-β working solution (6 ng/ml) was obtained through diluting TGF-β stock solution (10 μg/ml) by Test Medium before use. Eight different concentrations of all compounds were obtained by 3× gradient dilution method using TGF-β working solution. Add 100 μl of Test Medium (Vehicle) or test article or TGF-β working solution per well of a flat-bottom 96-well plate. Add 100 μl of HEK-Blue TGF-β cell suspension per well. Incubate the plate at 37° C. in a CO2 incubator for 22-23 h. Add 150 μl of resuspended QUANTI-Blue per well of a new flat-bottom 96-well plate. Add 30 μl of induced HEK-Blue TGF-β cells supernatant. Avoid pipetting at the bottom of wells. Incubate the plate at 37° C. incubator for 30-40 min. Determine secreted embryonic alkaline phosphatase (SEAP) levels using a spectrophotometer at 630 nm.
The inhibition was calculated using the equation: […]

Cc1cc(Oc2ccnc(Nc3ccc(CCC(=O)O)cc3)c2)c(-c2ccccn2)nc1C [Example 2] and Cc1cc(Oc2ccnc(Nc3ccc(F)c(CCC(=O)O)c3)c2)c(-c2ccccn2)nc1C [Example 4] are within 0.2 log units of each other in pIC50: 6.64 for the first, 6.70 for the second.

Going from Cc1cc(Oc2ccnc(Nc3cncc(CCC(=O)O)c3)c2)c(-c2ccccn2)nc1C [Example 3] to Cc1cc(Oc2ccnc(Nc3cc(CCC(=O)O)ccn3)c2)c(-c2ccccn2)nc1C [Example 8], the pIC50 rises from < 5.00 to 6.23. The second is the more potent here.

First: Cc1cc(Oc2ccnc(Nc3ccc(Cl)c(CCC(=O)O)c3)c2)c(-c2ccccn2)nc1C [Example 5]
Second: Cc1cc(Oc2ccnc(Nc3ccnc(CCC(=O)O)c3)c2)c(-c2ccccn2)nc1C [Example 9]
The pIC50 of the first is higher: 6.82 for the first, < 5.00 for the second.

Cc1cc(Oc2ccnc(Nc3cc(CCC(=O)O)ccc3F)c2)c(-c2ccccn2)nc1C [Example 6] and Cc1cc(Oc2ccnc(Nc3cccc(CCC(=O)O)c3F)c2)c(-c2ccccn2)nc1C [Example 10] are within 0.2 log units of each other in pIC50: 6.80 for the first, 6.66 for the second.

Compared with Cc1cc(Oc2ccnc(Nc3cccc(CCC(=O)O)n3)c2)c(-c2ccccn2)nc1C [Example 7], Cc1cc(Oc2ccnc(Nc3cccc(CCc4nnn[nH]4)n3)c2)c(-c2ccccn2)nc1C [Example 26] is 0.31 log units lower in pIC50: 6.77 for the first, 6.46 for the second. The first is the more potent here.

Going from Cc1cc(Oc2ccnc(Nc3cccc(-c4nnn[nH]4)c3)c2)c(-c2ccccn2)nc1C [Example 13] to Cc1cc(Oc2ccnc(Nc3ccc(-c4nnn[nH]4)cc3)c2)c(-c2ccccn2)nc1C [Example 14], the pIC50 falls from 5.97 to < 5.00.

Going from Cc1cc(Oc2ccnc(Nc3ccc(Cc4nnn[nH]4)cc3)c2)c(-c2ccccn2)nc1C [Example 15] to Cc1ccc(Nc2cc(Oc3cc(C)c(C)nc3-c3ccccn3)ccn2)cc1CCc1nnn[nH]1 [Example 28], the pIC50 rises from 5.74 to 7.30 (1.56 log units). The second is the more potent here.

Cc1cc(Oc2ccnc(Nc3cccc(C(C)(C)c4nnn[nH]4)c3)c2)c(-c2ccccn2)nc1C [Example 18] and Cc1cc(Oc2ccnc(Nc3cccc(C(C)(C)C(=O)O)c3)c2)c(-c2ccccn2)nc1C [Example 71, 2-(3-((4-((5,6-dimethyl-[2,2′-bipyridin]-3-yl)oxy)pyridin-2-yl)amino)phenyl)-2-methylpropanoic acid] are within 0.2 log units of each other in pIC50: 6.74 for the first, 6.85 for the second.

Cc1cc(Oc2ccnc(Nc3cc(CCc4nnn[nH]4)ccc3F)c2)c(-c2ccccn2)nc1C [Example 19] and Cc1ccc(CCc2nnn[nH]2)cc1Nc1cc(Oc2cc(C)c(C)nc2-c2ccccn2)ccn1 [Example 30] are within 0.2 log units of each other in pIC50: 6.80 for the first, 6.96 for the second.

Cc1cc(Oc2ccnc(Nc3ccc(Cl)c(CCc4nnn[nH]4)c3)c2)c(-c2ccccn2)nc1C [Example 20] and Cc1cc(Oc2ccnc(Nc3ccc(F)c(CCc4nnn[nH]4)c3)c2)c(-c2ccccn2)nc1C [Example 21] are within 0.2 log units of each other in pIC50: 6.92 for the first, 6.80 for the second.

First: Cc1cc(Oc2ccnc(Nc3ccc(C(F)(F)F)c(CCc4nn[nH]n4)c3)c2)c(-c2ccccn2)nc1C [Example 22]
Second: Cc1ccc(Oc2ccnc(Nc3ccc(C(F)(F)F)c(CCc4nn[nH]n4)c3)c2)c(-c2ccccn2)n1 [Example 65]
The pIC50 of the first is 0.36 log units higher: 6.64 for the first, 6.28 for the second.

Compared with Cc1cc(Oc2ccnc(Nc3cncc(CCc4nnn[nH]4)c3)c2)c(-c2ccccn2)nc1C [Example 23], Cc1cc(CCc2nnn[nH]2)cc(Nc2cc(Oc3cc(C)c(C)nc3-c3ccccn3)ccn2)c1 [Example 29] is higher in pIC50: < 5.00 for the first, 7.42 for the second. The second is the more potent here.

Compared with Cc1cc(Oc2ccnc(Nc3cc(CCc4nnn[nH]4)ccn3)c2)c(-c2ccccn2)nc1C [Example 24], Cc1cc(Oc2ccnc(Nc3cccc(CCc4nnn[nH]4)c3F)c2)c(-c2ccccn2)nc1C [Example 25] is 0.85 log units higher in pIC50: 5.34 for the first, 6.19 for the second. The second is the more potent here.

Compared with Cc1cc(Oc2ccnc(Nc3cccc(CCc4nnn[nH]4)c3C)c2)c(-c2ccccn2)nc1C [Example 27], Cc1cc(Oc2ccnc(Nc3cccc(OCc4nnn[nH]4)c3)c2)c(-c2ccccn2)nc1C [Example 33] is 1.46 log units lower in pIC50: 6.60 for the first, 5.14 for the second.

First: Cc1cc(Oc2ccnc(Nc3cnn(CCc4nn[nH]n4)c3)c2)c(-c2ccccn2)nc1C [Example 31]
Second: Cc1cc(Oc2ccnc(Nc3ccn(CCc4nn[nH]n4)n3)c2)c(-c2ccccn2)nc1C [Example 32]
The pIC50 of the first is lower: < 5.00 for the first, 5.43 for the second. The second is the more potent here.

Cc1cc(Oc2ccnc(Nc3cccc(Cc4nnn(CC(=O)O)n4)c3)c2)c(-c2ccccn2)nc1C [Example 34A, 2-(5-(3-((4-((5,6-dimethyl-[2,2′-bipyridin]-3-yl)oxy)pyridin-2-yl)amino)benzyl)-2H-tetrazol-2-yl)acetic acid] and Cc1cc(Oc2ccnc(Nc3ccc(Cc4nnn(CC(=O)O)n4)cc3)c2)c(-c2ccccn2)nc1C [Example 35A] cannot be ordered by pIC50: 4.90 for the first, < 5.00 for the second.

Cc1cc(Oc2ccnc(Nc3cccc(Cc4nnnn4CC(=O)O)c3)c2)c(-c2ccccn2)nc1C [Example 34B, 2-(5-(3-((4-((5,6-dimethyl-[2,2′-bipyridin]-3-yl)oxy)pyridin-2-yl)amino)benzyl)-1H-tetrazol-1-yl)acetic acid] and Cc1cc(Oc2ccnc(Nc3ccc(Cc4nnnn4CC(=O)O)cc3)c2)c(-c2ccccn2)nc1C [Example 35B] cannot be ordered by pIC50: < 5.00 for the first, < 5.00 for the second.

First: Cc1ccc(Oc2ccnc(Nc3ccc(F)c(CCC(=O)O)c3)c2)c(C)n1 [Example 36, 3-(5-((4-((2,6-dimethylpyridin-3-yl)oxy)pyridin-2-yl)amino)-2-fluorophenyl)propanoic acid]
Second: Cc1ccc(Oc2ccnc(Nc3ccc(Cl)c(CCC(=O)O)c3)c2)c(C)n1 [Example 41]
The pIC50 of the first is 0.26 log units lower: 6.74 for the first, 7.00 for the second.

Cc1ccc(Oc2ccnc(Nc3cccc(CCC(=O)O)n3)c2)c(C)n1 [Example 37] and Cc1ccc(Oc2ccnc(Nc3cc(CCC(=O)O)ccn3)c2)c(C)n1 [Example 42] are within 0.2 log units of each other in pIC50: 6.70 for the first, 6.85 for the second.

Compared with Cc1ccc(Oc2ccnc(Nc3cncc(CCC(=O)O)c3)c2)c(C)n1 [Example 38], Cc1ccc(Oc2ccnc(Nc3cc(CCC(=O)O)ccc3F)c2)c(C)n1 [Example 39] is higher in pIC50: < 5.00 for the first, 6.59 for the second. The second is the more potent here.

Compared with Cc1ccc(Oc2ccnc(Nc3cccc(CCC(=O)O)c3F)c2)c(C)n1 [Example 40], Cc1ccc(Oc2ccnc(Nc3cccc(CCc4nn[nH]n4)c3F)c2)c(C)n1 [Example 46] is 0.38 log units lower in pIC50: 6.66 for the first, 6.28 for the second. The first is the more potent here.

Going from Cc1ccc(Oc2ccnc(Nc3cccc(CCC(=O)O)c3)c2)c(C#N)n1 [Example 43] to Cc1ccc(Oc2ccnc(Nc3cccc(CCC(=O)O)c3)c2)c(-c2ccccc2)n1 [Example 66, 3-(3-((4-((6-methyl-2-phenylpyridin-3-yl)oxy)pyridin-2-yl)amino)phenyl)propanoic acid], the pIC50 rises from 5.42 to 7.62 (2.20 log units). The second is the more potent here.

Cc1ccc(Oc2ccnc(Nc3cc(CCc4nn[nH]n4)ccc3F)c2)c(C)n1 [Example 45] and Cc1ccc(Oc2ccnc(Nc3ccc(F)c(CCc4nn[nH]n4)c3)c2)c(C)n1 [Example 51] are within 0.2 log units of each other in pIC50: 6.38 for the first, 6.57 for the second.

Going from Cc1ccc(Oc2ccnc(Nc3cccc(CCc4nn[nH]n4)n3)c2)c(C)n1 [Example 47] to Cc1ccc(Oc2ccnc(Nc3cc(CCc4nn[nH]n4)ccn3)c2)c(C)n1 [Example 48], the pIC50 falls from 6.51 to 5.52 (0.99 log units).

First: Cc1ccc(Oc2ccnc(Nc3cncc(CCc4nn[nH]n4)c3)c2)c(C)n1 [Example 49]
Second: Cc1ccc(Oc2ccnc(Nc3ccc(Cl)c(CCc4nn[nH]n4)c3)c2)c(C)n1 [Example 50]
The pIC50 of the first is lower: < 5.00 for the first, 6.20 for the second. The second is the more potent here.

Compared with Cc1ccc(Oc2ccnc(Nc3cccc(CCc4nn[nH]n4)c3)c2)c(-c2cccnc2)n1 [Example 53], Cc1ccc(Oc2ccnc(Nc3cccc(CCc4nn[nH]n4)c3)c2)c(-c2ccncc2)n1 [Example 54] is 0.34 log units lower in pIC50: 5.53 for the first, 5.19 for the second.

First: Cc1ccc(Oc2ccnc(Nc3cccc(CCc4nn[nH]n4)c3)c2)c(-c2ccccn2)n1 [Example 55]
Second: Cc1cccc(-c2nc(C)ccc2Oc2ccnc(Nc3cccc(CCc4nn[nH]n4)c3)c2)n1 [Example 63]
The pIC50 of the first is 0.56 log units higher: 6.70 for the first, 6.14 for the second. The first is the more potent here.

CCc1nc(C)ccc1Oc1ccnc(Nc2cccc(CCc3nn[nH]n3)c2)c1 [Example 56] and CCc1ccc(Oc2ccnc(Nc3cccc(CCc4nn[nH]n4)c3)c2)c(C)n1 [Example 57] are within 0.2 log units of each other in pIC50: 6.80 for the first, 6.89 for the second.

First: Cc1ccc(Oc2ccnc(Nc3cccc(CCc4nn[nH]n4)c3)c2)c(C(F)(F)F)n1 [Example 58]
Second: Cc1ccc(Oc2ccnc(Nc3cccc(CCc4nn[nH]n4)c3)c2)c(-c2cnn(C)c2)n1 [Example 62]
The pIC50 of the first is 1.14 log units higher: 6.82 for the first, 5.68 for the second. The first is the more potent here.

Going from Cc1nc2ccccc2cc1Oc1ccnc(Nc2cccc(CCc3nn[nH]n3)c2)c1 [Example 59] to Cc1ccc(Oc2ccnc(Nc3cccc(CCc4nn[nH]n4)c3)c2)c(-c2ncccc2C)n1 [Example 64], the pIC50 falls from 6.35 to 5.59 (0.76 log units). The first is the more potent here.

First: Cc1ccc(Oc2ccnc(Nc3cccc(C(C)(C)c4nnn[nH]4)c3)c2)c(-c2ccccc2)n1 [Example 60]
Second: Cc1nc(-c2ccccc2)ccc1Oc1ccnc(Nc2cccc(C(C)(C)c3nn[nH]n3)c2)c1 [Example 61]
The pIC50 of the first is 0.38 log units higher: 7.10 for the first, 6.72 for the second.

Compared with c1cc(CCc2nn[nH]n2)cc(Nc2cc(Oc3cn(C4CC4)nc3C3CCOCC3)ccn2)c1 [Example 67, N-(3-(2-(2H-tetrazol-5-yl)ethyl)phenyl)-4-((1-cyclopropyl-3-(tetrahydro-2H-pyran-4-yl)-1H-pyrazol-4-yl)oxy)pyridin-2-amine], O=C(O)CCc1cccc(Nc2cc(Oc3cn(C4CC4)nc3C3CCOCC3)ccn2)c1 [Example 68, 3-(3-((4-((1-cyclopropyl-3-(tetrahydro-2H-pyran-4-yl)-1H-pyrazol-4-yl)oxy)pyridin-2-yl)amino)phenyl)propanoic acid] is 0.55 log units higher in pIC50: 5.58 for the first, 6.13 for the second. The second is the more potent here.

O=C(O)CCc1cc(Nc2cc(Oc3cn(C4CC4)nc3C3CCOCC3)ccn2)ccn1 [Example 69] was tested, and the pIC50 was < 5.00.
